According to PubChem BioAssay (NCI):
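96-well plates; 48 h exposure; 5 concentrations. Endpoints by linear interpolation between flanking doses. Not reached: highest tested concentration assigned. GI50: concentration for 50% inhibition of growth. TGI: concentration producing complete growth inhibition.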

Legend:
Assay in all cases: growth of human tumour cells (NCI), 48 h
786-0 renal = system: 786-0 renal
A498 renal = system: A498 renal
A549 NSCLC = system: A549 NSCLC
BT-549 breast = system: BT-549 breast
CCRF-CEM leukemia = system: CCRF-CEM leukemia
COLO 205 colon = system: COLO 205 colon
DU-145 prostate = system: DU-145 prostate
EKVX NSCLC = system: EKVX NSCLC
HCC-2998 colon = system: HCC-2998 colon
HCT-116 colon = system: HCT-116 colon
HCT-15 colon = system: HCT-15 colon
HOP-62 NSCLC = system: HOP-62 NSCLC
HOP-92 NSCLC = system: HOP-92 NSCLC
HS 578T breast = system: HS 578T breast
HT29 colon = system: HT29 colon
IGROV1 ovarian = system: IGROV1 ovarian
K-562 leukemia = system: K-562 leukemia
KM12 colon = system: KM12 colon
LOX IMVI melanoma = system: LOX IMVI melanoma
M14 melanoma = system: M14 melanoma
MALME-3M melanoma = system: MALME-3M melanoma
MCF7 breast = system: MCF7 breast
MDA-MB-231 breast = system: MDA-MB-231 breast
MOLT-4 leukemia = system: MOLT-4 leukemia
NCI-H23 lung = system: NCI-H23 lung
NCI-H460 lung = system: NCI-H460 lung
NCI-H522 lung = system: NCI-H522 lung
NCI/ADR-RES ovarian = system: NCI/ADR-RES ovarian
OVCAR-3 ovarian = system: OVCAR-3 ovarian
OVCAR-4 ovarian = system: OVCAR-4 ovarian
OVCAR-5 ovarian = system: OVCAR-5 ovarian
OVCAR-8 ovarian = system: OVCAR-8 ovarian
PC-3 prostate = system: PC-3 prostate
RPMI-8226 leukemia = system: RPMI-8226 leukemia
SF-268 CNS = system: SF-268 CNS
SF-295 CNS = system: SF-295 CNS
SF-539 CNS = system: SF-539 CNS
SK-MEL-2 melanoma = system: SK-MEL-2 melanoma
SK-MEL-28 melanoma = system: SK-MEL-28 melanoma
SK-MEL-5 melanoma = system: SK-MEL-5 melanoma
SK-OV-3 ovarian = system: SK-OV-3 ovarian
SN12C renal = system: SN12C renal
SNB-19 CNS = system: SNB-19 CNS
SNB-75 CNS = system: SNB-75 CNS
SR leukemia = system: SR leukemia
SW-620 colon = system: SW-620 colon
TK-10 renal = system: TK-10 renal
U251 CNS = system: U251 CNS
UACC-257 melanoma = system: UACC-257 melanoma
UACC-62 melanoma = system: UACC-62 melanoma
UO-31 renal = system: UO-31 renal

For CC(=O)O[C@H](C[C@H](C(C)C)N(C)C(=O)[C@@H](NC(=O)[C@H]1CCCCN1C)C(C)C)c1nc(C(=O)N[C@@H](Cc2ccccc2)C[C@H](C)C(=O)O)c(C)s1, the GI50 (786-0 renal) was < 2.5 nM, the TGI (786-0 renal) was > 25000 nM and the GI50 (A498 renal) was < 2.5 nM. The TGI (A498 renal) was < 2.5 nM, the GI50 (A549 NSCLC) was 5.32 nM and the TGI (A549 NSCLC) was > 25000 nM. For the same molecule, the GI50 (BT-549 breast) was < 2.5 nM, the TGI (BT-549 breast) was 62.7 nM and the GI50 (CCRF-CEM leukemia) was < 2.5 nM. The TGI (CCRF-CEM leukemia) was > 25000 nM, the GI50 (COLO 205 colon) was < 2.5 nM and the TGI (COLO 205 colon) was 5.95 nM. The GI50 (DU-145 prostate) was < 2.5 nM, the TGI (DU-145 prostate) was > 25000 nM and the GI50 (EKVX NSCLC) was 2.66 nM. The TGI (EKVX NSCLC) was > 25000 nM, the GI50 (HCC-2998 colon) was < 2.5 nM and the TGI (HCC-2998 colon) was > 25000 nM. For the same molecule, the GI50 (HCT-116 colon) was < 2.5 nM, the TGI (HCT-116 colon) was > 25000 nM and the GI50 (HCT-15 colon) was 3.85 nM. For the same molecule, the TGI (HCT-15 colon) was > 25000 nM, the GI50 (HOP-62 NSCLC) was < 2.5 nM and the TGI (HOP-62 NSCLC) was > 25000 nM. For the same molecule, the GI50 (HOP-92 NSCLC) was > 25000 nM, the TGI (HOP-92 NSCLC) was > 25000 nM and the GI50 (HS 578T breast) was < 2.5 nM. The TGI (HS 578T breast) was > 25000 nM, the GI50 (HT29 colon) was < 2.5 nM and the TGI (HT29 colon) was > 25000 nM. For the same molecule, the GI50 (IGROV1 ovarian) was 3.02 nM, the TGI (IGROV1 ovarian) was > 25000 nM and the GI50 (K-562 leukemia) was < 2.5 nM. The TGI (K-562 leukemia) was > 25000 nM, the GI50 (KM12 colon) was < 2.5 nM and the TGI (KM12 colon) was > 25000 nM. For the same molecule, the GI50 (LOX IMVI melanoma) was < 2.5 nM, the TGI (LOX IMVI melanoma) was > 25000 nM and the GI50 (M14 melanoma) was < 2.5 nM. For the same molecule, the TGI (M14 melanoma) was > 25000 nM, the GI50 (MALME-3M melanoma) was 4560 nM and the TGI (MALME-3M melanoma) was > 25000 nM. For the same molecule, the GI50 (MCF7 breast) was < 2.5 nM, the TGI (MCF7 breast) was > 25000 nM and the GI50 (MDA-MB-231 breast) was < 2.5 nM. For the same molecule, the TGI (MDA-MB-231 breast) was > 25000 nM, the GI50 (MOLT-4 leukemia) was < 2.5 nM and the TGI (MOLT-4 leukemia) was > 25000 nM. For the same molecule, the GI50 (NCI-H23 lung) was < 2.5 nM, the TGI (NCI-H23 lung) was > 25000 nM and the GI50 (NCI-H460 lung) was < 2.5 nM. The TGI (NCI-H460 lung) was > 25000 nM, the GI50 (NCI-H522 lung) was < 2.5 nM and the TGI (NCI-H522 lung) was > 25000 nM. For the same molecule, the GI50 (NCI/ADR-RES ovarian) was 57.4 nM, the TGI (NCI/ADR-RES ovarian) was > 25000 nM and the GI50 (OVCAR-3 ovarian) was < 2.5 nM. For the same molecule, the TGI (OVCAR-3 ovarian) was > 25000 nM, the GI50 (OVCAR-4 ovarian) was > 25000 nM and the TGI (OVCAR-4 ovarian) was > 25000 nM. The GI50 (OVCAR-5 ovarian) was 8.5 nM, the TGI (OVCAR-5 ovarian) was > 25000 nM and the GI50 (OVCAR-8 ovarian) was < 2.5 nM. For the same molecule, the TGI (OVCAR-8 ovarian) was > 25000 nM, the GI50 (PC-3 prostate) was < 2.5 nM and the TGI (PC-3 prostate) was > 25000 nM. The GI50 (RPMI-8226 leukemia) was < 2.5 nM, the TGI (RPMI-8226 leukemia) was > 25000 nM and the GI50 (SF-268 CNS) was < 2.5 nM. For the same molecule, the TGI (SF-268 CNS) was > 25000 nM, the GI50 (SF-295 CNS) was < 2.5 nM and the TGI (SF-295 CNS) was > 25000 nM. For the same molecule, the GI50 (SF-539 CNS) was < 2.5 nM, the TGI (SF-539 CNS) was 18.7 nM and the GI50 (SK-MEL-2 melanoma) was < 2.5 nM. For the same molecule, the TGI (SK-MEL-2 melanoma) was > 25000 nM, the GI50 (SK-MEL-28 melanoma) was < 2.5 nM and the TGI (SK-MEL-28 melanoma) was > 25000 nM. For the same molecule, the GI50 (SK-MEL-5 melanoma) was < 2.5 nM, the TGI (SK-MEL-5 melanoma) was 14.4 nM and the GI50 (SK-OV-3 ovarian) was < 2.5 nM. For the same molecule, the TGI (SK-OV-3 ovarian) was > 25000 nM, the GI50 (SN12C renal) was < 2.5 nM and the TGI (SN12C renal) was > 25000 nM. For the same molecule, the GI50 (SNB-19 CNS) was < 2.5 nM, the TGI (SNB-19 CNS) was > 25000 nM and the GI50 (SNB-75 CNS) was < 2.5 nM. For the same molecule, the TGI (SNB-75 CNS) was > 25000 nM, the GI50 (SR leukemia) was < 2.5 nM and the TGI (SR leukemia) was > 25000 nM. For the same molecule, the GI50 (SW-620 colon) was < 2.5 nM, the TGI (SW-620 colon) was > 25000 nM and the GI50 (TK-10 renal) was > 25000 nM. For the same molecule, the TGI (TK-10 renal) was > 25000 nM, the GI50 (U251 CNS) was < 2.5 nM and the TGI (U251 CNS) was > 25000 nM. For the same molecule, the GI50 (UACC-257 melanoma) was > 25000 nM, the TGI (UACC-257 melanoma) was > 25000 nM and the GI50 (UACC-62 melanoma) was < 2.5 nM. For the same molecule, the TGI (UACC-62 melanoma) was > 25000 nM, the GI50 (UO-31 renal) was 16.1 nM and the TGI (UO-31 renal) was > 25000 nM.
